Measured values published in US20090099195A1 (ASTRAZENECA AB, priority 2007, published 2009).

Experiments:
[1] = biological target: T1, hP2X3 (human Purinergic P2X receptors subtype 3), clone A (Homo sapiens, UniProt P56373); test: hP2X3 FLIPR calcium (Fluo-4) antagonist assay, clone A; settings: Human P2X3 FLIPR Clone A Mean IC50 (nM), RLE cells expressing hP2X3 clone A (AB016608); agonist 500 nM α,β-methylene-ATP
T1 sequence (P56373 1-397): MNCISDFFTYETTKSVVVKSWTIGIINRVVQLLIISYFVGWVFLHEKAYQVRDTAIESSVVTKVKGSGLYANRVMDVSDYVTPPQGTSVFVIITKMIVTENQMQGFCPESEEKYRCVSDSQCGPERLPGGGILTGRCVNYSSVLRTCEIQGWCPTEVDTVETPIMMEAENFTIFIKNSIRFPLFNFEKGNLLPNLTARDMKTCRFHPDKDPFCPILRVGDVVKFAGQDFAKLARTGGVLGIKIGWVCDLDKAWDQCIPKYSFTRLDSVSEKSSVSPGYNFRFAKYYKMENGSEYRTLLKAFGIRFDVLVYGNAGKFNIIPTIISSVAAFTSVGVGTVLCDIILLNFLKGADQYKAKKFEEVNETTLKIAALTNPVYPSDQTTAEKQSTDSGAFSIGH

[2] = biological target: T2, hP2X3 (human Purinergic P2X receptors subtype 3), clone B (Homo sapiens, UniProt P56373); test: hP2X3 FLIPR calcium (Fluo-4) antagonist assay, clone B; settings: Human P2X3 FLIPR Clone B IC50 (nM), RLE cells expressing hP2X3 clone B (NM_002559); agonist 500 nM α,β-methylene-ATP
T2 sequence (P56373 1-397): T1 sequence (P56373 1-397)
Method: The assay used a calcium indicator dye (Fluo-4) that emits fluorescence, the intensity of which is related to the concentration of calcium that entered the cell when P2X3 was activated and the channel opened. Activation of hP2X3 or rat P2X3 and rat P2X2/3 (from the coexpression of rat P2X3 and rat P2×2) is elicited the by P2X3 agonist α,β methylene-ATP (Sigma M6517), and the resulting fluorescence is measured with a FLIPR II™ instrument (Molecular Devices). Compounds are tested for their ability to inhibit the agonist-induced fluorescent signal.
For the rat P2X2/3 HEK-TREX cells, induction of the rat P2X3 expression is used to generate the rat P2X2/3 channels in HEK-TREX cells and performed by addition of 1 μg/mL tetracycline (Invitrogen) 24 h prior to compounds testing to the HEK-TREX expressing the rat P2X2 constitutively. On the day of the experiment, the cells and test compounds are prepared as follows. […] After preparing the compounds, the medium is removed from the cell plates by inversion. A loading solution of 30 μL assay buffer containing 4 μM of the calcium indicator dye FLUO-4 AM (Molecular Probes F14202) is added to each well using a Multidrop (Labsystems). […] The incubation is terminated by washing the cells four times in assay buffer using a Skatron Embla (Molecular Devices), and 25 μL of assay buffer was left in each well. Cell plates are then transferred to the FLIPR. Experiments are initiated by measuring a baseline fluorescence reading for 10 seconds, followed by the addition of 12.5 μL of cpds and data sampling for a total 280 seconds. The experiments are terminated by addition of 12.5 μL of a reference agonist (500 nM α,β-methylene-ATP) or buffer, producing a final assay volume of 50 μL followed by data sampling for an additional 280 seconds.
In P2X3 antagonist experiments (human and rat assays) data are analysed as normalised maximal peak fluorescence monitored following agonist addition and calculated as percent of relative fluorescent counts from control agonist. The dose-response antagonist inhibition curves are analyzed in a 4-parameter sigmoidal fit using a non-linear curve-fitting program (XLfit version 5.0.6, ID Business Solutions Limited, Guildford, UK).

| IC50 [1] [nM] | IC50 [2] [nM] | SMILES |
| --- | --- | --- |
| 71.1 | 64 | CC(=O)N1CCN(c2nc3c(c(N(C)C(C)c4ccc5ncccc5c4)n2)CN(C(C)C)C3=O)CC1 (single isomer, unassigned) [Example 261, 2-(4-acetylpiperazin-1-yl)-6-isopropyl-4-(methyl(1-(quinolin-6-yl)ethyl)amino)-5H-pyrrolo[3,4-d]pyrimidin-7(6H)-one] |
| 824 | 730 | COc1ccc(C2CCCN2c2nc(N3CCN(C(C)=O)CC3)nc3c2CN(C(C)C)C3=O)cc1C (centres unmarked) [Example 295, 2-(4-acetylpiperazin-1-yl)-4-[2-(4-methoxy-3-methylphenyl)pyrrolidin-1-yl]-6-(1-methylethyl)-5,6-dihydro-7H-pyrrolo[3,4-d]pyrimidin-7-one] |
| 40 | 32 | CCC(C)N1Cc2c(nc(N3CCN(C(C)=O)CC3)nc2N(CC)Cc2cc3ccccc3cn2)C1=O (single isomer, unassigned) [Example 317, 2-(4-acetylpiperazin-1-yl)-4-[ethyl(isoquinolin-3-ylmethyl)amino]-6-(1-methylpropyl)-5,6-dihydro-7H-pyrrolo[3,4-d]pyrimidin-7-one] |
| 1590 | 1400 | COCc1ccc(CC2CCCN2c2nc(N3CCN(C(C)=O)CC3)nc3c2CN(C(C)C)C3=O)cc1 (centres unmarked) [Example 293, 2-(4-acetylpiperazin-1-yl)-4-{2-[4-(methoxymethyl)benzyl]pyrrolidin-1-yl}-6-(1-methylethyl)-5,6-dihydro-7H-pyrrolo[3,4-d]pyrimidin-7-one] |
| 27.2 | 16 | CC(=O)N1CCN(c2nc(NCc3cc4ccccc4c(C)n3)c3c(n2)C(=O)N(C(C)C)C3)CC1 [Example 259, 2-(4-acetylpiperazin-1-yl)-6-isopropyl-4-((1-methylisoquinolin-3-yl)methylamino)-5H-pyrrolo[3,4-d]pyrimidin-7(6H)-one] |
| 7120 | 5800 | CCOc1ccc([C@H](CO)Nc2nc(N3CCN(C(C)=O)CC3)nc3c2CN(C(C)C)C3=O)cc1 [Example 180, (R)-2-(4-acetylpiperazin-1-yl)-4-(1-(4-ethoxyphenyl)-2-hydroxyethylamino)-6-isopropyl-5H-pyrrolo[3,4-d]pyrimidin-7(6H)-one] |
| 199 | 170 | CC(=O)N1CCN(c2nc(N[C@H](C)c3cc(C(F)(F)F)ccc3F)c3c(n2)C(=O)N(C(C)C)C3)CC1 [Example 183, (R)-2-(4-acetylpiperazin-1-yl)-4-(1-(2-fluoro-5-(trifluoromethyl)phenyl)ethylamino)-6-isopropyl-5H-pyrrolo[3,4-d]pyrimidin-7(6H)-one] |
| 47.2 | 44 | CC(=O)N1CCN(c2nc(N[C@H](C)c3ccc(OC(C)C)c(F)c3)c3c(n2)C(=O)N(C(C)C)C3)CC1 [Example 190, (R)-2-(4-acetylpiperazin-1-yl)-4-(1-(3-fluoro-4-isopropoxyphenyl)ethylamino)-6-isopropyl-5H-pyrrolo[3,4-d]pyrimidin-7(6H)-one] |
| 65.8 | 62 | COc1cc(OC(C)C)ccc1[C@@H](C)Nc1nc(N2CCN(C(C)=O)CC2)nc2c1CN(C(C)C)C2=O [Example 203, (R)-2-(4-acetylpiperazin-1-yl)-4-(1-(4-isopropoxy-2-methoxyphenyl)ethylamino)-6-isopropyl-5H-pyrrolo[3,4-d]pyrimidin-7(6H)-one] |
| 5050 | 2300 | CC(=O)N1CCN(c2nc(NCc3nc4ccccc4s3)c3c(n2)C(=O)N(C(C)C)C3)CC1 [Example 199, 2-(4-acetylpiperazin-1-yl)-4-(benzo[d]thiazol-2-ylmethylamino)-6-isopropyl-5H-pyrrolo[3,4-d]pyrimidin-7(6H)-one] |
| 322 | 300 | CC(=O)N1CCN(c2nc3c(c(N4CCCC4c4ccc(Cl)c(Cl)c4)n2)CN(C(C)C)C3=O)CC1 (centres unmarked) [Example 297, 2-(4-acetylpiperazin-1-yl)-4-[2-(3,4-dichlorophenyl)pyrrolidin-1-yl]-6-(1-methylethyl)-5,6-dihydro-7H-pyrrolo[3,4-d]pyrimidin-7-one] |
| 84.5 | 85 | CCOc1ccc([C@@H](C)N(C)c2nc(N3CCN(C(C)=O)CC3)nc3c2CN(C(C)C)C3=O)cc1F [Example 262, (R)-2-(4-acetylpiperazin-1-yl)-4-((1-(4-ethoxy-3-fluorophenyl)ethyl)(methyl)amino)-6-isopropyl-5H-pyrrolo[3,4-d]pyrimidin-7(6H)-one] |
| 1230 | 640 | CCOc1ccc(CC(C)(C)Nc2nc(N3CCN(C(C)=O)CC3)nc3c2CN(C(C)C)C3=O)cc1 [Example 198, 2-(4-acetylpiperazin-1-yl)-4-(1-(4-ethoxyphenyl)-2-methylpropan-2-ylamino)-6-isopropyl-5H-pyrrolo[3,4-d]pyrimidin-7(6H)-one] |
| 53.6 | 47 | CC[C@H](C)N1Cc2c(nc(N3CCN(C(C)=O)CC3)nc2N(C)Cc2cnc3ccccc3c2)C1=O [Example 319, 2-(4-acetylpiperazin-1-yl)-6-[(1S)-1-methylpropyl]-4-[methyl(quinolin-3-ylmethyl)amino]-5,6-dihydro-7H-pyrrolo[3,4-d]pyrimidin-7-one] |
| 501 | 790 | CC(C)N1Cc2c(nc(N3CCN(C)C(=O)C3)nc2N(C)Cc2cc3ccccc3cn2)C1=O [Example 200, 6-isopropyl-4-((isoquinolin-3-ylmethyl)(methyl)amino)-2-(4-methyl-3-oxopiperazin-1-yl)-5H-pyrrolo[3,4-d]pyrimidin-7(6H)-one] |
| 35.5 | 28 | CC[C@H](C)N1Cc2c(NCc3cnc4ccccc4c3)nc(N3CCN(C(C)=O)CC3)nc2C1=O [Example 316, 2-(4-acetylpiperazin-1-yl)-6-[(1S)-1-methylpropyl]-4-[(quinolin-3-ylmethyl)amino]-5,6-dihydro-7H-pyrrolo[3,4-d]pyrimidin-7-one] |
| 76.6 | 79 | CCOc1ccc([C@@H](CO)Nc2nc(N3CCN(C(C)=O)CC3)nc3c2CN(C(C)C)C3=O)cc1 [Example 189, (S)-2-(4-acetylpiperazin-1-yl)-4-(1-(4-ethoxyphenyl)-2-hydroxyethylamino)-6-isopropyl-5H-pyrrolo[3,4-d]pyrimidin-7(6H)-one] |
| 723 | 410 | CCOc1ccc([C@@H](C)Nc2nc(N3CCN(C)C(=O)C3)nc3c2CN(C(C)C)C3=O)cc1F [Example 201, (R)-4-(1-(4-ethoxy-3-fluorophenyl)ethylamino)-6-isopropyl-2-(4-methyl-3-oxopiperazin-1-yl)-5H-pyrrolo[3,4-d]pyrimidin-7(6H)-one] |
| 232 | 250 | CCN(c1nc(N2CCN(C(C)=O)CC2)nc2c1CN(C(C)C)C2=O)C(C)c1ccc2ncccc2c1 (single isomer, unassigned) [Example 258, 2-(4-acetylpiperazin-1-yl)-4-(ethyl(1-(quinolin-6-yl)ethyl)amino)-6-isopropyl-5H-pyrrolo[3,4-d]pyrimidin-7(6H)-one] |
| 1900 | 2300 | CC(=O)N1CCN(c2nc3c(c(N(C)C(C)c4ccc5ncccc5c4)n2)CN(C(C)C)C3=O)CC1 (single isomer, unassigned) [Example 260, 2-(4-acetylpiperazin-1-yl)-6-isopropyl-4-(methyl(1-(quinolin-6-yl)ethyl)amino)-5H-pyrrolo[3,4-d]pyrimidin-7(6H)-one] |
| 83.2 | 80 | CCN(c1nc(N2CCN(C(C)=O)CC2)nc2c1CN(C(C)C)C2=O)C(C)c1ccc2ncccc2c1 (single isomer, unassigned) [Example 257, 2-(4-acetylpiperazin-1-yl)-4-(ethyl(1-(quinolin-6-yl)ethyl)amino)-6-isopropyl-5H-pyrrolo[3,4-d]pyrimidin-7(6H)-one] |
| 79.7 | 74 | CCOc1ccc([C@H](Nc2nc(N3CCN(C(C)=O)CC3)nc3c2CN(C(C)C)C3=O)C2CC2)cc1 [Example 185, (R)-2-(4-acetylpiperazin-1-yl)-4-(cyclopropyl(4-ethoxyphenyl)methylamino)-6-isopropyl-5H-pyrrolo[3,4-d]pyrimidin-7(6H)-one] |
| 50.4 | 38 | CCOc1ccc([C@@H](C)Nc2nc(N3CCN(C(C)=O)CC3)nc3c2CN(C(C)C)C3=O)c(F)c1 [Example 204, (R)-2-(4-acetylpiperazin-1-yl)-4-(1-(4-ethoxy-2-fluorophenyl)ethylamino)-6-isopropyl-5H-pyrrolo[3,4-d]pyrimidin-7(6H)-one] |
| 117 | 96 | CC(=O)N1CCN(c2nc(N[C@H](C)c3cccc(C(F)(F)F)c3F)c3c(n2)C(=O)N(C(C)C)C3)CC1 [Example 187, (R)-2-(4-acetylpiperazin-1-yl)-4-(1-(2-fluoro-3-(trifluoromethyl)phenyl)ethylamino)-6-isopropyl-5H-pyrrolo[3,4-d]pyrimidin-7(6H)-one] |
| 175 | 320 | CC(=O)N1CCN(c2nc(N[C@H](C)c3cccc(OC(F)F)c3)c3c(n2)C(=O)N(C(C)C)C3)CC1 [Example 181, (R)-2-(4-acetylpiperazin-1-yl)-4-(1-(3-(difluoromethoxy)phenyl)ethylamino)-6-isopropyl-5H-pyrrolo[3,4-d]pyrimidin-7(6H)-one] |
